From the NIST ThermoML archive (doi:10.1021/je400184t)
Numbers after ± are expanded uncertainties.

Test: xn = mol fraction of the nth substance listed
Settings: 101 kPa, Liquid, Vibrating tube method

Question: With `NCCO` [2-aminoethan-1-ol] + c1ccncc1 as the compound, how does the mass density (288.15 K, x2 = 0) read?
Answer: 1019.87 ± 0.2 kg/m3

Question: And the mass density (288.15 K, x2 = 0.02208)?
Answer: 1018.83 ± 0.2 kg/m3

Question: What about the mass density (288.15 K, x2 = 0.03932) of the same compound?
Answer: 1018.01 ± 0.2 kg/m3

Question: And the mass density (288.15 K, x2 = 0.06973)?
Answer: 1016.73 ± 0.2 kg/m3

Question: And the mass density (288.15 K, x2 = 0.1369)?
Answer: 1014.03 ± 0.2 kg/m3

Question: What about the mass density (288.15 K, x2 = 0.2147) of the same compound?
Answer: 1011.06 ± 0.2 kg/m3

Question: What about the mass density (288.15 K, x2 = 0.3455) of the same compound?
Answer: 1006.12 ± 0.2 kg/m3

Question: And the mass density (288.15 K, x2 = 0.4414)?
Answer: 1002.7 ± 0.2 kg/m3

Question: What about the mass density (288.15 K, x2 = 0.5819) of the same compound?
Answer: 998.105 ± 0.2 kg/m3

Question: What about the mass density (288.15 K, x2 = 0.6767) of the same compound?
Answer: 995.328 ± 0.2 kg/m3

Question: And the mass density (288.15 K, x2 = 0.79)?
Answer: 992.252 ± 0.2 kg/m3

Question: And the mass density (288.15 K, x2 = 0.878)?
Answer: 990.097 ± 0.2 kg/m3

Question: And the mass density (288.15 K, x2 = 0.96)?
Answer: 988.258 ± 0.2 kg/m3

Question: What about the mass density (298.15 K, x2 = 0) of the same compound?
Answer: 1012.12 ± 0.2 kg/m3

Question: And the mass density (298.15 K, x2 = 0.01329)?
Answer: 1011.37 ± 0.2 kg/m3

Question: What about the mass density (298.15 K, x2 = 0.03932) of the same compound?
Answer: 1010.09 ± 0.2 kg/m3

Question: What about the mass density (298.15 K, x2 = 0.06973) of the same compound?
Answer: 1008.71 ± 0.2 kg/m3

Question: And the mass density (298.15 K, x2 = 0.1369)?
Answer: 1005.81 ± 0.2 kg/m3

Question: What about the mass density (298.15 K, x2 = 0.2147) of the same compound?
Answer: 1002.59 ± 0.2 kg/m3

Question: What about the mass density (298.15 K, x2 = 0.3455) of the same compound?
Answer: 997.334 ± 0.2 kg/m3

Question: What about the mass density (298.15 K, x2 = 0.4414) of the same compound?
Answer: 993.687 ± 0.2 kg/m3

Question: What about the mass density (298.15 K, x2 = 0.5819) of the same compound?
Answer: 988.794 ± 0.2 kg/m3

Question: And the mass density (298.15 K, x2 = 0.6767)?
Answer: 985.804 ± 0.2 kg/m3

Question: And the mass density (298.15 K, x2 = 0.79)?
Answer: 982.566 ± 0.2 kg/m3

Question: What about the mass density (298.15 K, x2 = 0.878) of the same compound?
Answer: 980.237 ± 0.2 kg/m3

Question: And the mass density (298.15 K, x2 = 0.9817)?
Answer: 977.805 ± 0.2 kg/m3

Question: And the mass density (353.15 K, x2 = 0)?
Answer: 968.332 ± 0.2 kg/m3

Question: And the mass density (353.15 K, x2 = 0.02208)?
Answer: 966.667 ± 0.2 kg/m3

Question: And the mass density (353.15 K, x2 = 0.03932)?
Answer: 965.353 ± 0.2 kg/m3

Question: What about the mass density (353.15 K, x2 = 0.06973) of the same compound?
Answer: 963.408 ± 0.2 kg/m3

Question: And the mass density (353.15 K, x2 = 0.1369)?
Answer: 959.323 ± 0.2 kg/m3

Question: What about the mass density (353.15 K, x2 = 0.2147) of the same compound?
Answer: 954.908 ± 0.2 kg/m3

Question: And the mass density (353.15 K, x2 = 0.3455)?
Answer: 947.883 ± 0.21 kg/m3

Question: What about the mass density (353.15 K, x2 = 0.4414) of the same compound?
Answer: 943.004 ± 0.21 kg/m3

Question: What about the mass density (353.15 K, x2 = 0.5819) of the same compound?
Answer: 936.439 ± 0.21 kg/m3

Question: And the mass density (353.15 K, x2 = 0.6767)?
Answer: 932.426 ± 0.21 kg/m3

Question: What about the mass density (353.15 K, x2 = 0.79) of the same compound?
Answer: 928.035 ± 0.21 kg/m3

Question: What about the mass density (353.15 K, x2 = 0.878) of the same compound?
Answer: 924.973 ± 0.21 kg/m3

Question: What about the mass density (353.15 K, x2 = 0.96) of the same compound?
Answer: 922.401 ± 0.21 kg/m3

Question: Which mass density (288.15 K, x2 = 0) does the source give for `CN(CCO)CCO` [N-methyldiethanolamine] + c1ccncc1 here?
Answer: 1046.36 ± 0.21 kg/m3

Question: What about the mass density (288.15 K, x2 = 0.07502) of the same compound?
Answer: 1041.45 ± 0.21 kg/m3

Question: What about the mass density (288.15 K, x2 = 0.1844) of the same compound?
Answer: 1034.44 ± 0.2 kg/m3

Question: What about the mass density (288.15 K, x2 = 0.3178) of the same compound?
Answer: 1025.81 ± 0.2 kg/m3

Question: What about the mass density (288.15 K, x2 = 0.4447) of the same compound?
Answer: 1018 ± 0.2 kg/m3

Question: And the mass density (288.15 K, x2 = 0.5708)?
Answer: 1010.68 ± 0.2 kg/m3

Question: And the mass density (288.15 K, x2 = 0.6945)?
Answer: 1003.92 ± 0.2 kg/m3

Question: And the mass density (288.15 K, x2 = 0.8095)?
Answer: 997.843 ± 0.2 kg/m3

Question: And the mass density (288.15 K, x2 = 0.8886)?
Answer: 993.774 ± 0.2 kg/m3

Question: And the mass density (288.15 K, x2 = 0.9597)?
Answer: 990.221 ± 0.2 kg/m3

Question: What about the mass density (298.15 K, x2 = 0) of the same compound?
Answer: 1036.81 ± 0.21 kg/m3

Question: And the mass density (298.15 K, x2 = 0.04)?
Answer: 1034.22 ± 0.21 kg/m3

Question: What about the mass density (298.15 K, x2 = 0.1) of the same compound?
Answer: 1030.39 ± 0.2 kg/m3

Question: What about the mass density (298.15 K, x2 = 0.2183) of the same compound?
Answer: 1023.03 ± 0.2 kg/m3

Question: What about the mass density (298.15 K, x2 = 0.33) of the same compound?
Answer: 1016.1 ± 0.2 kg/m3

Question: And the mass density (298.15 K, x2 = 0.5265)?
Answer: 1004.45 ± 0.2 kg/m3

Question: What about the mass density (298.15 K, x2 = 0.6) of the same compound?
Answer: 1000.15 ± 0.2 kg/m3

Question: What about the mass density (298.15 K, x2 = 0.7687) of the same compound?
Answer: 990.603 ± 0.2 kg/m3

Question: What about the mass density (298.15 K, x2 = 0.9059) of the same compound?
Answer: 983.032 ± 0.2 kg/m3

Question: What about the mass density (298.15 K, x2 = 0.9582) of the same compound?
Answer: 980.414 ± 0.2 kg/m3

Question: What about the mass density (353.15 K, x2 = 0) of the same compound?
Answer: 994.015 ± 0.2 kg/m3

Question: What about the mass density (353.15 K, x2 = 0.01699) of the same compound?
Answer: 992.733 ± 0.2 kg/m3

Question: And the mass density (353.15 K, x2 = 0.07502)?
Answer: 988.525 ± 0.2 kg/m3

Question: What about the mass density (353.15 K, x2 = 0.1844) of the same compound?
Answer: 980.64 ± 0.2 kg/m3

Question: What about the mass density (353.15 K, x2 = 0.3178) of the same compound?
Answer: 971.05 ± 0.2 kg/m3

Question: What about the mass density (353.15 K, x2 = 0.4447) of the same compound?
Answer: 961.905 ± 0.2 kg/m3

Question: What about the mass density (353.15 K, x2 = 0.5708) of the same compound?
Answer: 952.805 ± 0.21 kg/m3

Question: What about the mass density (353.15 K, x2 = 0.6945) of the same compound?
Answer: 943.917 ± 0.21 kg/m3

Question: What about the mass density (353.15 K, x2 = 0.8095) of the same compound?
Answer: 935.616 ± 0.21 kg/m3

Question: And the mass density (353.15 K, x2 = 0.8886)?
Answer: 930.006 ± 0.21 kg/m3

Question: And the mass density (353.15 K, x2 = 0.9597)?
Answer: 924.867 ± 0.21 kg/m3

Question: Which mass density (298.15 K, x2 = 0) does the source give for `Cc1ccccc1` [toluene] + CCCCCCC here?
Answer: 862.222 ± 0.21 kg/m3

Question: What about the mass density (298.15 K, x2 = 0.00177) of the same compound?
Answer: 861.767 ± 0.21 kg/m3

Question: What about the mass density (298.15 K, x2 = 0.01118) of the same compound?
Answer: 859.353 ± 0.21 kg/m3

Question: And the mass density (298.15 K, x2 = 0.0267)?
Answer: 855.387 ± 0.22 kg/m3

Question: What about the mass density (298.15 K, x2 = 0.05849) of the same compound?
Answer: 847.515 ± 0.22 kg/m3

Question: And the mass density (298.15 K, x2 = 0.1297)?
Answer: 830.567 ± 0.22 kg/m3

Question: What about the mass density (298.15 K, x2 = 0.2059) of the same compound?
Answer: 813.369 ± 0.22 kg/m3

Question: And the mass density (298.15 K, x2 = 0.2752)?
Answer: 798.596 ± 0.23 kg/m3

Question: What about the mass density (298.15 K, x2 = 0.3604) of the same compound?
Answer: 781.402 ± 0.23 kg/m3

Question: What about the mass density (298.15 K, x2 = 0.4494) of the same compound?
Answer: 764.554 ± 0.23 kg/m3

Question: What about the mass density (298.15 K, x2 = 0.4718) of the same compound?
Answer: 760.485 ± 0.24 kg/m3

Question: What about the mass density (298.15 K, x2 = 0.6659) of the same compound?
Answer: 727.559 ± 0.25 kg/m3

Question: What about the mass density (298.15 K, x2 = 0.8166) of the same compound?
Answer: 704.661 ± 0.25 kg/m3

Question: And the mass density (298.15 K, x2 = 0.9094)?
Answer: 691.588 ± 0.26 kg/m3

Question: What about the mass density (298.15 K, x2 = 0.9624) of the same compound?
Answer: 684.471 ± 0.26 kg/m3

Question: What about the mass density (298.15 K, x2 = 0.9968) of the same compound?
Answer: 679.955 ± 0.26 kg/m3
